# Results as given in paper PMC11012124, “Synthesis of Novel Triazine-Based Chalcones and 8,9-dihydro-7H-pyrimido[4,5-b][1,4]diazepines as Potential Leads in the Search of Anticancer, Antibacterial and Antifungal Agents” (International Journal of Molecular Sciences, 2024).
# What was measured:
# [1] = Hemolytic activity, spectrophotometric; format: cell-based, human; conditions: human, human red blood cells (huRBC), 5% hematocrit, 200 μg/mL, 37 °C
# CCRF-CEM = assay: cells; conditions: Homo sapiens, 48 h; for CC50: read-out: LC50
# HL-60(TB) = assay: cells; conditions: Homo sapiens, HL-60, 48 h; for CC50: read-out: LC50
# K-562 = assay: cells; conditions: Homo sapiens, K562, 48 h; for GI50: K-562, 48 h; for CC50: read-out: LC50
# EKVX = assay: cells; conditions: Homo sapiens, 48 h; for CC50: read-out: LC50
# HOP-62 = assay: cells; conditions: Homo sapiens, HOP-62, 48 h; for CC50: read-out: LC50
# NCI-H322M = assay: cells; conditions: Homo sapiens, 48 h; for CC50: read-out: LC50
# NCI-H460 = assay: cells; conditions: Homo sapiens, NCI-H460, 48 h; for CC50: read-out: LC50
# COLO 205 = assay: cells; conditions: Homo sapiens, COLO 205, 48 h; for CC50: read-out: LC50
# HCC-2998 = assay: cells; conditions: Homo sapiens, HCC 2998, 48 h; for CC50: read-out: LC50
# HCT-15 = assay: cells; conditions: Homo sapiens, HCT-15, 48 h; for CC50: read-out: LC50
# HT29 = assay: cells; conditions: Homo sapiens, HT-29, 48 h; for CC50: read-out: LC50
# KM12 = assay: cells; conditions: Homo sapiens, KM12, 48 h; for CC50: read-out: LC50
# SF-268 = assay: cells; conditions: Homo sapiens, SF-268, 48 h
# SF-295 = assay: cells; conditions: Homo sapiens, SF-295, 48 h; for CC50: read-out: LC50
# SF-539 = assay: cells; conditions: Homo sapiens, SF-539, 48 h; for CC50: read-out: LC50, SF-539, 48 h
# SNB-75 = assay: cells; conditions: Homo sapiens, SNB-75, 48 h; for CC50: read-out: LC50
# MALME-3M = assay: cells; conditions: Homo sapiens, 48 h
# M14 = assay: cells; conditions: Homo sapiens, M14, 48 h; for CC50: read-out: LC50
# SK-MEL-28 = assay: cells; conditions: Homo sapiens, SK-MEL-28, 48 h; for CC50: read-out: LC50
# SK-MEL-5 = assay: cells; conditions: Homo sapiens, SK-MEL-5, 48 h; for CC50: read-out: LC50
# UACC-257 = assay: cells; conditions: Homo sapiens, UACC-257, 48 h; for CC50: read-out: LC50
# UACC-62 = assay: cells; conditions: Homo sapiens, UACC-62, 48 h; for CC50: read-out: LC50
# OVCAR-3 = assay: cells; conditions: Homo sapiens, OVCAR-3, 48 h
# OVCAR-4 = assay: cells; conditions: Homo sapiens, OVCAR-4, 48 h; for CC50: read-out: LC50
# OVCAR-5 = assay: cells; conditions: Homo sapiens, OVCAR-5, 48 h; for CC50: read-out: LC50
# OVCAR-8 = assay: cells; conditions: Homo sapiens, OVCAR-8, 48 h; for CC50: read-out: LC50
# SK-OV-3 = assay: cells; conditions: Homo sapiens, SK-OV-3, 48 h; for CC50: read-out: LC50
# 786-0 = assay: cells; conditions: Homo sapiens, 786-0, 48 h; for CC50: read-out: LC50
# A498 = assay: cells; conditions: Homo sapiens, A498, 48 h; for CC50: read-out: LC50
# CAKI-1 = assay: cells; conditions: Homo sapiens, CAKI-1, 48 h; for CC50: read-out: LC50
# RXF 393 = assay: cells; conditions: Homo sapiens, RXF 393, 48 h
# SN12C = assay: cells; conditions: Homo sapiens, 48 h; for CC50: read-out: LC50
# TK-10 = assay: cells; conditions: Homo sapiens, TK-10, 48 h; for CC50: read-out: LC50
# UO-31 = assay: cells; conditions: Homo sapiens, UO-31, 48 h; for CC50: read-out: LC50
# MCF7 = assay: cells; conditions: Homo sapiens, MCF7, 48 h; for CC50: read-out: LC50
# HS 578T = assay: cells; conditions: Homo sapiens, 48 h; for CC50: read-out: LC50
# MDA-MB-468 = assay: cells; conditions: Homo sapiens, MDA-MB-468, 48 h; for CC50: read-out: LC50
structure (smiles),measurement,setting,value
CN(C)c1nc(NCCNS(=O)(=O)c2ccc(C(=O)/C=C/c3ccccc3)cc2)nc(Nc2ccc(F)cc2)n1 [24a],"hemolysis at 24 h, 200 µg/mL",[1],10.6%
same,GI50,CCRF-CEM,6.59 µM
same,CC50,CCRF-CEM,> 100 µM
same,GI50,HL-60(TB),3.88 µM
same,CC50,HL-60(TB),> 100 µM
same,GI50,K-562,3.34 µM
same,CC50,K-562,> 100 µM
same,GI50,EKVX,4.48 µM
same,CC50,EKVX,40.6 µM
same,GI50,HOP-62,11.8 µM
same,CC50,HOP-62,60.6 µM
same,GI50,NCI-H322M,9.83 µM
same,CC50,NCI-H322M,76.9 µM
same,GI50,NCI-H460,4.34 µM
same,CC50,NCI-H460,56.5 µM
same,GI50,COLO 205,5.46 µM
same,CC50,COLO 205,56.7 µM
same,GI50,HCC-2998,2.35 µM
same,CC50,HCC-2998,17.9 µM
same,GI50,HCT-15,2.04 µM
same,CC50,HCT-15,7.25 µM
same,GI50,HT29,3.08 µM
same,CC50,HT29,73.5 µM
same,GI50,KM12,3.74 µM
same,CC50,KM12,54 µM
same,GI50,SF-268,5.65 µM
same,CC50,SF-268; read-out: LC50,65.2 µM
same,GI50,SF-295,6.96 µM
same,CC50,SF-295,44.5 µM
same,GI50,SF-539,12 µM
same,CC50,SF-539,50.2 µM
same,GI50,SNB-75,3.23 µM
same,CC50,SNB-75,> 100 µM
same,GI50,MALME-3M,12.6 µM
same,CC50,MALME-3M; read-out: LC50,54.5 µM
same,GI50,M14,5.98 µM
same,CC50,M14,51.5 µM
same,GI50,SK-MEL-28,10.2 µM
same,CC50,SK-MEL-28,48.4 µM
same,GI50,SK-MEL-5,4.7 µM
same,CC50,SK-MEL-5,41.6 µM
same,GI50,UACC-257,12.6 µM
same,CC50,UACC-257,61 µM
same,GI50,UACC-62,6.68 µM
same,CC50,UACC-62,46.9 µM
same,GI50,OVCAR-3,8.59 µM
same,CC50,OVCAR-3; read-out: LC50,48.7 µM
same,GI50,OVCAR-4,4.39 µM
same,CC50,OVCAR-4,99.3 µM
same,GI50,OVCAR-5,13.3 µM
same,CC50,OVCAR-5,53.2 µM
same,GI50,OVCAR-8,12.2 µM
same,CC50,OVCAR-8,57.1 µM
same,GI50,SK-OV-3,13 µM
same,CC50,SK-OV-3,68.1 µM
same,GI50,786-0,11.2 µM
same,CC50,786-0,56.9 µM
same,GI50,A498,11.6 µM
same,CC50,A498,49.7 µM
same,GI50,CAKI-1,4.75 µM
same,CC50,CAKI-1,52.6 µM
same,GI50,RXF 393,2.94 µM
same,CC50,RXF 393; read-out: LC50,39.9 µM
same,GI50,SN12C,8.2 µM
same,CC50,SN12C,46.2 µM
same,GI50,TK-10,14.6 µM
same,CC50,TK-10,65.5 µM
same,GI50,UO-31,4.6 µM
same,CC50,UO-31,41.9 µM
same,GI50,MCF7,1.99 µM
same,CC50,MCF7,8.23 µM
same,GI50,HS 578T,7.39 µM
same,CC50,HS 578T,> 100 µM
same,GI50,MDA-MB-468,2.84 µM
same,CC50,MDA-MB-468,37.6 µM
Nc1nc(N)c2c(n1)NC(c1ccccc1)CC(c1ccc(Nc3nc(NCCO)nc(Nc4ccc(Cl)cc4)n3)cc1)=N2 (stereo not shown) [33a],"hemolysis at 24 h, 200 µg/mL",[1],8%
same,GI50,CCRF-CEM,0.95 µM
same,CC50,CCRF-CEM,> 100 µM
same,GI50,HL-60(TB),0.32 µM
same,CC50,HL-60(TB),> 100 µM
same,GI50,K-562,1.01 µM
same,CC50,K-562,> 100 µM
same,GI50,EKVX,1.64 µM
same,CC50,EKVX,6.12 µM
same,GI50,HOP-62,1.74 µM
same,CC50,HOP-62,6.07 µM
same,GI50,NCI-H322M,1.63 µM
same,CC50,NCI-H322M,5.67 µM
same,GI50,NCI-H460,1.85 µM
same,CC50,NCI-H460,6.51 µM
same,GI50,COLO 205,1.79 µM
same,CC50,COLO 205,6.09 µM
same,GI50,HCC-2998,1.68 µM
same,CC50,HCC-2998,5.72 µM
same,GI50,HCT-15,1.38 µM
same,CC50,HCT-15,5.87 µM
same,GI50,HT29,1.77 µM
same,CC50,HT29,6.28 µM
same,GI50,KM12,1.9 µM
same,CC50,KM12,6.61 µM
same,GI50,SF-268,1.87 µM
same,GI50,SF-295,1.57 µM
same,CC50,SF-295,5.63 µM
same,GI50,SF-539,1.6 µM
same,CC50,SF-539,5.85 µM
same,GI50,SNB-75,1.56 µM
same,CC50,SNB-75,6.29 µM
same,GI50,MALME-3M,1.76 µM
same,GI50,M14,1.84 µM
same,CC50,M14,6.1 µM
same,GI50,SK-MEL-28,1.73 µM
same,CC50,SK-MEL-28,5.64 µM
same,GI50,SK-MEL-5,1.42 µM
same,CC50,SK-MEL-5,5.21 µM
same,GI50,UACC-257,1.9 µM
same,CC50,UACC-257,6.43 µM
same,GI50,UACC-62,1.84 µM
same,CC50,UACC-62,6 µM
same,GI50,OVCAR-4,1.72 µM
same,CC50,OVCAR-4,8.19 µM
same,GI50,OVCAR-5,1.94 µM
same,CC50,OVCAR-5,7.25 µM
same,GI50,OVCAR-8,1.46 µM
same,CC50,OVCAR-8,6.59 µM
same,GI50,SK-OV-3,17.7 µM
same,CC50,SK-OV-3,57.9 µM
same,GI50,786-0,1.63 µM
same,CC50,786-0,5.8 µM
same,GI50,A498,1.54 µM
same,CC50,A498,5.96 µM
same,GI50,CAKI-1,2.3 µM
same,CC50,CAKI-1,24.8 µM
same,GI50,RXF 393,1.63 µM
same,GI50,SN12C,1.74 µM
same,CC50,SN12C,7.2 µM
same,GI50,TK-10,2.09 µM
same,CC50,TK-10,7.16 µM
same,GI50,UO-31,1.87 µM
same,CC50,UO-31,9.83 µM
same,GI50,MCF7,1.51 µM
same,CC50,MCF7,6.1 µM
same,GI50,HS 578T,1.98 µM
same,CC50,HS 578T,> 100 µM
same,GI50,MDA-MB-468,1.51 µM
same,CC50,MDA-MB-468,5.93 µM
